Measurements: patent US9975910B2, “Hetero-fused cyclic compound” (Eisai R&D Management Co., Ltd., priority 2013, dated 2018)
≈ marks a conversion by molar mass, not a printed value.

Tests used:
[1] = Metabolic stability of pooled human liver microsomes; type: in vitro ADME; settings: for Residual rate of unchanged substance (%): 0.3 μM compound, 0.2 mg/mL microsomes, 37° C., NADPH; for microsomal CLint at 0.3 μM: ke/(concentration of pooled human liver microsomes), read-out: Hepatic intrinsic clearance; for Clearance of human liver microsomes compared with the respective Comparative Example: result in words
Description: Evaluations on the metabolic stability of human liver microsomes prepared in Reference Examples 1 and 2 and Comparative Examples 1 and 2 produced using Examples were performed as follows.
A test compound was added to an enzyme solution (pooled human liver microsomes (0.2 mg/mL), 100 mM Kpi, containing 0.1 mM EDTA), and was incubated in the presence of a coenzyme for a predetermined time at 37° C. The final concentration of the test compound was 0.3 μM. As the coenzyme, an NADPH-generating system (solution in which 60 mM MgCl2 solution containing 3.6 mM β-NADP^+, 90 mM glucose-6-phosphate, and 1 Unit/mL glucose-6-phosphate dehydrogenated enzyme was incubated at 37° C. for 5 minutes to generate NADPH) was used. After pre-incubation, part of the reaction solution was extracted; a double amount of a mixed solution of acetonitrile and methanol (7:3, containing 1.0 μM Propranolol as an internal standard substance) was added to terminate the reaction, and the concentration of the unchanged substance in the reaction solution was measured by LC-MS/MS. Based on the peak area of the unchanged substance obtained, the residual rate (%) of the unchanged substance was calculated wherein the residual rate at 0 min (incubation time) was 100%. Namely, the inclination of the straight line obtained when the value obtained by natural logarithmic conversion of the residual rate of the unchanged substance after a predetermined reaction time was plotted as the ordinate, and the reaction time was plotted as the abscissa was defined as an elimination rate constant (ke). Based on the obtained elimination rate constant ke, the hepatic intrinsic clearance of the test compound was calculated with the following expression: Hepatic intrinsic clearance (mL/min/mg protein)=ke/(concentration of pooled human liver microsomes: mg protein/mL)

[2] = Evaluation on lipid solubility: distribution ratio (D) of 1-octanol to water by ODS column HPLC; type: physicochemical; settings: 1-octanol/water, pH 6.8, from HPLC retention on ODS column
Description: A parameter of lipid solubility, i.e., a distribution ratio (D) of a 1-octanol to water (pH: 6.8) was determined with an ODS (silica gel having a surface modified with an octadecylsilyl group) column by the following method.
The mobile phase shown in Table 2 was added to sodium nitrate (to marker) and six standard substances having known partition coefficients shown in Table 2 to prepare mixed solutions each containing 5 μg/mL sodium nitrate and a 10 μg/mL or 10 μL/mL standard substance; these mixed solutions were used as standard solutions. The mobile phase shown in Table 3 was added to a sample, the concentration was adjusted to 0.1 mM to prepare a sample solution. HPLC analysis of the standard solutions and the sample solution was performed on the following conditions, and the retention times (tr) of the standard substances and the sample were measured. From the retention factor (kstd) determined from the partition coefficient (log P) of the standard substance and Expression I, the regression coefficient (a) and the constant term (b) in Expression II were determined; using Expression III, the partition coefficient (log D) at a pH of 6.8 was calculated from the retention factor (ksmpt) of the sample; finally, the distribution ratio (D) of 1-octanol to water (pH: 6.8) was obtained.
Reference: Exploring QSAR-Hydrophobic, and Steric Constants, Corwin Hansch, Albert Leo, and David Hoekman, ACS Professional Reference Book k=(tr−t0)/t0 Expression I log P=a×log kstd+b Expression II log D=a×log ksmp+b Expression III (2) Measurement Conditions

[3] = system: C. albicans CAF2-1 strains; assay: Anticandidal activity (MIC measurement); type: cell-based; settings: for MIC: Candida albicans, CAF21STRAINS; for Anticandidal activity compared with amphotericin B: result in words
Description: The anticandidal activity of Reference Examples 1, 2, and 3 and Comparative Examples 1, 2, and 3 produced using Examples and amphotericin B was measured as follows.
C. albicans CAF2-1 strains were subjected to static culture in a Sabouraud dextrose liquid culture medium (SDB) at 30° C. for 48 hours; and the bacterial suspension was diluted with an RPMI1640 culture medium to prepare a 1.2×10^3 cells/mL bacterial suspension.
The diluted solutions of eight test compounds in plates (A to H) were prepared using a U-bottomed 96-well plate. 10 μL of a dimethyl sulfoxide solution was poured into columns 2 to 12 of the individual plates. The weighed test compounds were separately dissolved in dimethyl sulfoxide to prepare 2.5 mg/mL solutions; then, these solutions (20 μL) were placed in column 1 of the prepared plates, and were subjected to two-fold serial dilution in 12 steps on the plates (10 μL of solution+10 μL of dimethyl sulfoxide solution). The diluted solutions of the test compounds each were placed in a flat-bottomed 96-well plate for MIC measurement in an amount of 1 μL to prepare plates of the diluted test compound.
The bacterial suspension prepared in (1) (99 μL/well) was inoculated into the flat-bottomed 96-well plate containing the diluted solutions of the test compounds (1 μL/well) prepared in (2), and was subjected to static culture at 35° C. for 42 to 48 hours under an aerobic condition.

[4] = Evaluation on solubility (HPLC-UV, phosphate-buffered saline); type: physicochemical; settings: for solubility: aqueous buffer, kinetic from dmso stock, Dulbecco's phosphate-buffered saline pH 7 (GIBCO), room temperature, about 15 minutes shaking; for Solubility compared with Comparative Example 1 and Comparative Example 2: phosphate-buffered saline pH 7, result in words
Description: The supernatant was then separated through vacuum filtration operation. A dimethyl sulfoxide solution (sample concentration: 100 μM) was used as a standard solution, and the sample concentration in the supernatant determined by an HPLC-UV method was defined as solubility. Test solution: pH of 7, GIBCO™ (Dulbecco's phosphate-buffered saline, Invitrogen Corporation)

[5] = standard substances, known values (Hansch, Leo, Hoekman); cited from earlier work
[6] = RPMI1640, 35° C., 42 to 48 hours, visually determined

Row | SMILES | Residual rate of unchanged substance (%) ([1]; After 0 min (defined as 100%)) | Residual rate of unchanged substance (%) ([1]; After 15 min) | microsomal CLint at 0.3 μM [1] | Clearance of human liver microsomes compared with the respective Comparative Example [1] | chromatographic logD [2] | MIC [3, 6] | Anticandidal activity compared with amphotericin B [3] | Residual rate of unchanged substance (%) ([1]; After 30 min) | Residual rate of unchanged substance (%) ([1]; After 60 min) | solubility [4] | Solubility compared with Comparative Example 1 and Comparative Example 2 [4] | Partition coefficient (logP) [5] | Anticandidal activity (MIC) [3, 6]
1 | Nc1nc2c(cc1C(=O)NCc1ccc(OCc3ccccc3)cc1)COC2 [Reference Example 3] | 100.0% | 78.0% | 82 µL/min/mg | improved | 2.72 | 2 µg/mL (≈ 5.33 µM) | strong anticandidal activity equal to that of amphotericin B |  |  |  |  |  | 
2 | Nc1nc2c(nc1C(=O)NCc1ccc(COc3ccccn3)cc1)COC2 [Reference Example 2, 5-Amino-N-({4-[(pyridin-2-yloxy)methyl]phenyl}methyl)-1,3-dihydrofuro[3,4-b]pyrazine-6-carboxamide] | 100.0% | 87.0% | 35 µL/min/mg | improved | 2.72 | 0.5 µg/mL (≈ 1.32 µM) | strong anticandidal activity equal to that of amphotericin B | 77.6% | 65.4% | 2.1 µM (≈ 0.793 µg/mL) | higher |  | 
3 | Cc1cc(Cc2ccc(CNC(=O)c3ccc(N)nc3N)cc2)sc1C [Comparative Example 1, 2,6-Diamino-N-({4-[(4,5-dimethylthiophen-2-yl)methyl]phenyl}methyl)-pyridine-3-carboxamide, reference compound] | 100.0% | 93.1% | 50 µL/min/mg |  | 3.27 | 0.13 µg/mL (≈ 0.355 µM) | strong anticandidal activity equal to that of amphotericin B | 77.0% | 56.2% | 0.2 µM (≈ 0.0733 µg/mL) |  |  | 
4 | CCCCc1ccccc1 [n-Butylbenzene] |  |  |  |  |  |  |  |  |  |  |  | 4.38 | 
5 | Nc1ccc(C(=O)NCc2ccc(Cc3cc4c(s3)COC4)cc2)c(N)n1 [Reference Example 1] | 100.0% | 83.6% | 39 µL/min/mg | improved | 2.15 | 0.25 µg/mL (≈ 0.657 µM) | strong anticandidal activity equal to that of amphotericin B | 75.9% | 61.4% | 13.9 µM (≈ 5.29 µg/mL) | higher |  | 
6 | C[C@@H]1[C@H](O)[C@@H](C)/C=C/C=C/C=C/C=C/C=C/C=C/C=C/[C@H](O[C@@H]2O[C@H](C)[C@@H](O)[C@H](N)[C@@H]2O)C[C@@H]2O[C@](O)(C[C@@H](O)C[C@@H](O)[C@H](O)CC[C@@H](O)C[C@@H](O)CC(=O)O[C@H]1C)C[C@H](O)[C@H]2C(=O)O [Amphotericin B] |  |  |  |  |  |  |  |  |  |  |  |  | 1.6 µg/mL
7 | Cc1cc(C(=O)NCc2ccc(OCc3ccccc3)cc2)c(N)nc1C [Comparative Example 3, 2-Amino-N-(4-(benzyloxy)benzyl)-5,6-dimethylnicotinamide, reference compound] | 100.0% | 65.0% | 150 µL/min/mg |  | 3.41 | 0.13 µg/mL (≈ 0.36 µM) | strong anticandidal activity equal to that of amphotericin B |  |  |  |  |  | 
8 | Cc1nc(N)c(C(=O)NCc2ccc(COc3ccccn3)cc2)nc1C [Comparative Example 2, 3-Amino-5,6-dimethyl-N-({4-[(pyridin-2-yloxy)methyl]phenyl}methyl)pyrazine-2-carboxamide, reference compound] | 100.0% | 73.0% | 98 µL/min/mg |  | 3.26 | 0.063 µg/mL (≈ 0.173 µM) | strong anticandidal activity equal to that of amphotericin B | 53.7% | 30.9% | 0.9 µM (≈ 0.327 µg/mL) |  |  | 
